In ChEMBL document CHEMBL1128255, “Synthesis of 11 beta-[18F]fluoro-5 alpha-dihydrotestosterone and 11 beta-[18F]fluoro-19-nor-5 alpha-dihydrotestosterone: preparation via halofluorination-reduction, receptor binding, and tissue distribution” (J Med Chem, 1995):

Columns and labels:
[1] = %ID/g is percent injected dose per gram of tissue and in vivo distribution of compound obtained after 1 hour in prostate (d)/muscle; format: ADME, organism-based
[2] = %ID/g is percent injected dose per gram of tissue and in vivo distribution of compound obtained after 2 hour in prostate (v)/blood; format: ADME, organism-based
[3] = %ID/g is percent injected dose per gram of tissue and in vivo distribution of compound obtained after 2 hour in prostate (v)/muscle; format: ADME, organism-based
[4] = %ID/g is percent injected dose per gram of tissue and in vivo distribution of compound obtained after 4 hour in bladder; format: ADME, organism-based, Urinary bladder
[5] = %ID/g is percent injected dose per gram of tissue and in vivo distribution of compound obtained after 4 hour in bone; format: ADME, organism-based, Bone element
[6] = %ID/g is percent injected dose per gram of tissue and in vivo distribution of compound obtained after 4 hour in kidney; format: ADME, organism-based
[7] = %ID/g is percent injected dose per gram of tissue and in vivo distribution of compound obtained after 4 hour in muscle; format: ADME, organism-based
[8] = %ID/g is percent injected dose per gram of tissue and in vivo distribution of compound obtained after 4 hour in prostate (d); format: ADME, organism-based, Prostate gland
[9] = %ID/g is percent injected dose per gram of tissue and in vivo distribution of compound obtained after 4 hour in prostate (v); format: ADME, organism-based, Prostate gland
[10] = %ID/g is percent injected dose per gram of tissue and in vivo distribution of compound obtained after 4 hour in prostate (v)/blood; format: ADME, organism-based; details: other tissue
[11] = %ID/g is percent injected dose per gram of tissue and in vivo distribution of compound obtained after 4 hour in prostate (v)/muscle; format: ADME, organism-based
[12] = %ID/g is percent injected dose per gram of tissue and in vivo distribution of compound obtained after 4 hour in spleen; format: ADME, organism-based
[13] = %ID/g is percent injected dose per gram of tissue and in vivo distribution of compound obtained after 2 hour in prostate (d)/biood; format: ADME, organism-based, Prostate gland
[14] = %ID/g is percent injected dose per gram of tissue and in vivo distribution of compound obtained after 1 hour in bladder; format: ADME, organism-based, Urinary bladder
[15] = %ID/g is percent injected dose per gram of tissue and in vivo distribution of compound obtained after 1 hour in blood; format: ADME, organism-based
[16] = %ID/g is percent injected dose per gram of tissue and in vivo distribution of compound obtained after 1 hour in bone; format: ADME, organism-based, Bone element
[17] = %ID/g is percent injected dose per gram of tissue and in vivo distribution of compound obtained after 1 hour in kidney; format: ADME, organism-based
[18] = %ID/g is percent injected dose per gram of tissue and in vivo distribution of compound obtained after 1 hour in liver; format: ADME, organism-based
[19] = %ID/g is percent injected dose per gram of tissue and in vivo distribution of compound obtained after 1 hour in lung; format: ADME, organism-based
[20] = %ID/g is percent injected dose per gram of tissue and in vivo distribution of compound obtained after 1 hour in prostate (d); format: ADME, organism-based, Prostate gland
[21] = %ID/g is percent injected dose per gram of tissue and in vivo distribution of compound obtained after 2 hour (low) in liver; format: ADME, organism-based
[22] = %ID/g is percent injected dose per gram of tissue and in vivo distribution of compound obtained after 2 hour (low) in lung; format: ADME, organism-based
[23] = %ID/g is percent injected dose per gram of tissue and in vivo distribution of compound obtained after 2 hour (low) in muscle; format: ADME, organism-based
[24] = %ID/g is percent injected dose per gram of tissue and in vivo distribution of compound obtained after 2 hour (low) in prostate (d)/muscle; format: ADME, organism-based
[25] = %ID/g is percent injected dose per gram of tissue and in vivo distribution of compound obtained after 2 hour (low) in prostate (v); format: ADME, organism-based, Prostate gland
[26] = %ID/g is percent injected dose per gram of tissue and in vivo distribution of compound obtained after 2 hour (low) in prostate (v)/blood; format: ADME, organism-based
[27] = %ID/g is percent injected dose per gram of tissue and in vivo distribution of compound obtained after 2 hour (low) in prostate (v)/muscle; format: ADME, organism-based
[28] = %ID/g is percent injected dose per gram of tissue and in vivo distribution of compound obtained after 2 hour in bladder; format: ADME, organism-based, Urinary bladder
[29] = %ID/g is percent injected dose per gram of tissue and in vivo distribution of compound obtained after 2 hour in blood; format: ADME, organism-based
[30] = %ID/g is percent injected dose per gram of tissue and in vivo distribution of compound obtained after 2 hour in liver; format: ADME, organism-based
[31] = %ID/g is percent injected dose per gram of tissue and in vivo distribution of compound obtained after 2 hour in lung; format: ADME, organism-based
[32] = %ID/g is percent injected dose per gram of tissue and in vivo distribution of compound obtained after 2 hour in muscle; format: ADME, organism-based
[33] = %ID/g is percent injected dose per gram of tissue and in vivo distribution of compound obtained after 2 hour (blocked) in kidney; format: ADME, organism-based
[34] = %ID/g is percent injected dose per gram of tissue and in vivo distribution of compound obtained after 2 hour (blocked) in prostate (d); format: ADME, organism-based, Prostate gland
[35] = %ID/g is percent injected dose per gram of tissue and in vivo distribution of compound obtained after 2 hour (blocked) in prostate (v); format: ADME, organism-based, Prostate gland
[36] = %ID/g is percent injected dose per gram of tissue and in vivo distribution of compound obtained after 2 hour (blocked) in prostate (v)/muscle; format: ADME, organism-based
[37] = %ID/g is percent injected dose per gram of tissue and in vivo distribution of compound obtained after 2 hour (blocked)i n prostate (d)/biood; format: ADME, organism-based, Prostate gland
[38] = %ID/g is percent injected dose per gram of tissue and in vivo distribution of compound obtained after 2 hour (low) in fat; format: ADME, organism-based, Adipose tissue
[39] = %ID/g is percent injected dose per gram of tissue and in vivo distribution of compound obtained after 1 hour in spleen; format: ADME, organism-based
[40] = %ID/g is percent injected dose per gram of tissue and in vivo distribution of compound obtained after 2 hour (blocked) in bone; format: ADME, organism-based, Bone element

| Compound | ID/g [1] | ID/g [2] | ID/g [3] | ID/g [4] | ID/g [5] | ID/g [6] | ID/g [7] | ID/g [8] | ID/g [9] | ID/g [10] | ID/g [11] | ID/g [12] | ID/g [13] | ID/g [14] | ID/g [15] | ID/g [16] | ID/g [17] | ID/g [18] | ID/g [19] | ID/g [20] | further results |
| --- | --- | --- | --- | --- | --- | --- | --- | --- | --- | --- | --- | --- | --- | --- | --- | --- | --- | --- | --- | --- | --- |
| C[C@]12CCC(=O)C[C@@H]1CC[C@@H]1[C@@H]2[C@@H](F)C[C@]2(C)[C@@H](O)CC[C@@H]12 | 7.75% | 10.058% | 9.022% | 0.268% | 0.072% | 0.155% | 0.017% | 0.291% | 0.327% | 12.249% | 19.715% | 0.02% | 10.642% | 1.245% | 0.092% | 0.064% | 0.417% | 1.16% | 0.111% | 0.459% | ID/g [21]: 0.228%; ID/g [22]: 0.036%; ID/g [23]: 0.026%; ID/g [24]: 9.78%; ID/g [25]: 0.212%; ID/g [26]: 10.43%; ID/g [27]: 8.86%; ID/g [28]: 0.165%; ID/g [29]: 0.038%; ID/g [30]: 0.451%; ID/g [31]: 0.069%; ID/g [32]: 0.038%; ID/g [33]: 0.2%; ID/g [34]: 0.074%; ID/g [35]: 0.069%; ID/g [36]: 2.895%; ID/g [37]: 1.465%; ID/g [38]: 0.02%; ID/g [39]: 0.048%; ID/g [40]: 0.061% |
| C[C@]12C[C@H](F)[C@H]3[C@@H](CC[C@H]4CC(=O)CC[C@@H]43)[C@@H]1CC[C@@H]2O | 3.473% | 2.605% | 3.404% | 0.456% | 0.078% | 0.201% | 0.027% | 0.084% | 0.066% | 2.036% | 2.919% | 0.029% | 2.95% | 3.331% | 0.089% | 0.068% | 0.458% | 1.812% | 0.115% | 0.21% | ID/g [21]: 1.045%; ID/g [22]: 0.061%; ID/g [23]: 0.037%; ID/g [24]: 3.83%; ID/g [25]: 0.109%; ID/g [26]: 2.427%; ID/g [27]: 2.993%; ID/g [28]: 4.549%; ID/g [29]: 0.046%; ID/g [30]: 0.992%; ID/g [31]: 0.058%; ID/g [32]: 0.035%; ID/g [33]: 0.301%; ID/g [34]: 0.048%; ID/g [35]: 0.054%; ID/g [36]: 1.763%; ID/g [37]: 0.815%; ID/g [38]: 0.041%; ID/g [39]: 0.061%; ID/g [40]: 0.065% |
